Source: the RepoRT retention time repository

Assay: Thermo Scientific Acclaim RSLC 120 C18, 100 × 2.1 mm, 2.2 µm, 30 °C, 0.2 to 0.48 mL/min, estimated dead time 1.1 min; A: 90% water + 10% methanol + 5 mM ammonium acetate; B: methanol + 5 mM ammonium acetate; gradient (min/%B) 0.1/1 3/39 14/99.9 16/99.9
Settings: stereoisomer not certain

LC retention time | Compound
3.58 min | CC(C)NCC(O)COc1ccc(CC(=O)O)cc1 (centres undefined)
11.6 min | CCCCOc1cc(C(=O)NCCN(CC)CC)c2ccccc2n1
4.79 min | Cc1ccc(S(N)(=O)=O)cc1
3.76 min | CC(=O)Nc1ccc(S(=O)(=O)Nc2ncccn2)cc1
5.17 min | NS(=O)(=O)Cc1noc2ccccc12
5.11 min | Nc1nc2ccccc2[nH]1
6.56 min | CC[N+]([O-])(CC)CC(=O)Nc1c(C)cccc1C
5.56 min | CCNc1nc(NCC)[nH]c(=O)n1
6.51 min | CCCCc1ncc(C=C(Cc2cccs2)C(=O)O)n1Cc1ccc(C(=O)O)cc1
7.73 min | CCCCC1C(=O)N(c2ccccc2)N(c2ccc(O)cc2)C1=O (centres undefined)
8.22 min | Cc1cc(C)n(-c2nc3ccccc3[nH]2)n1
8.29 min | CCc1cccc(C)c1N(C(=O)C(=O)O)C(C)COC (centres undefined)
13.3 min | CCC(=O)OC(OP(=O)(CCCCc1ccccc1)CC(=O)N1CC(C2CCCCC2)CC1C(=O)O)C(C)C (centres undefined)
11.1 min | CC(CCC(=O)O)C1CCC2C3C(O)CC4CC(O)CCC4(C)C3CCC12C (centres undefined)
1.49 min | O=C1CC(C(=O)O)CC(=O)C1=C(O)C1CC1 (centres undefined)
8.96 min | CC(C(=O)O)c1ccc(C(=O)c2cccs2)cc1 (centres undefined)
10.5 min | CCc1cccc2c3c([nH]c12)C(CC)(CC(=O)O)OCC3 (centres undefined)
6.12 min | CNCC(c1ccc(OC)cc1)C1(O)CCCCC1 (centres undefined)
8.81 min | CC(C)c1ccc(NC(N)=O)cc1
5.42 min | O=S(=O)(O)c1ccc2ccccc2c1
9.5 min | CCCc1nn(C)c2c(=O)[nH]c(-c3cc(S(=O)(=O)N4CCN(C)CC4)ccc3OCC)nc12
6.41 min | Cc1cnc(NC(=O)C2=C(O)c3ccccc3S(=O)(=O)N2C)s1
3.92 min | NS(=O)(=O)c1ccccc1
7.46 min | CCCCC1C(=O)N(c2ccccc2)N(c2ccccc2)C1=O
5.89 min | O=C(O)c1cc(-c2ccccc2)nc2ccccc12

LC retention time | Compound
10.8 min | CC12CCC3c4ccc(O)cc4CCC3C1CCC2O (centres undefined)
13.3 min | CCCCc1oc2ccc(NS(C)(=O)=O)cc2c1C(=O)c1ccc(OCCCN(CCCC)CCCC)cc1
11.2 min | CCCc1nc2c(C)cc(-c3nc4ccccc4n3C)cc2n1Cc1ccc(-c2ccccc2C(=O)O)cc1
5.06 min | Cc1cn(C2CC(N=[N+]=[N-])C(CO)O2)c(=O)[nH]c1=O (centres undefined)
2.62 min | S=c1nc[nH]c2nc[nH]c12
4.41 min | CCCCCC(C)N (centres undefined)
10.9 min | COCCCOc1cc(CC(CC(N)C(O)CC(C(=O)NCC(C)(C)C(N)=O)C(C)C)C(C)C)ccc1OC (centres undefined)
8.46 min | CCNc1nc(NC(C)(C)C)[nH]c(=O)n1
6.74 min | COC(=O)C1CC2=CC(=O)CCC2(C)C23OC2CC2(C)C(CCC24CCC(=O)O4)C13 (centres undefined)
9.89 min | CC12CCC3c4ccc(O)c(O)c4CCC3C1CCC2=O (centres undefined)
9.74 min | CC12CCC3c4cc(O)c(O)cc4CCC3C1CCC2=O (centres undefined)
9.01 min | CCOc1ccc(NC(=O)OC(C)C)cc1OCC
8.39 min | COc1ccc(Oc2ccc(NC(=O)N(C)C)cc2)cc1
5.08 min | CCN1CCCC1CNC(=O)c1cc(S(=O)(=O)CC)c(N)cc1OC (centres undefined)
8.47 min | NC(=O)N1c2ccccc2C2OC2c2ccccc21 (centres undefined)
6.23 min | CC(C(=O)O)c1ccc(N2Cc3ccccc3C2=O)cc1 (centres undefined)
8.54 min | COc1ccc2cc(CCC(C)=O)ccc2c1
3.18 min | CC(Cn1cnc2c(N)ncnc21)OCP(=O)(O)O (centres undefined)
6.82 min | Oc1ccc(C=Cc2cc(O)cc(O)c2)cc1
6.74 min | COc1ccc2cc(C(C)C(=O)O)ccc2c1 (centres undefined)
6.56 min | Cc1ccc2n[nH]nc2c1
4.42 min | CCN1CCCC1CNC(=O)c1cc(S(N)(=O)=O)ccc1OC (centres undefined)
6.04 min | NS(=O)(=O)c1cc(C(=O)O)cc(N2CCCC2)c1Oc1ccccc1
7.69 min | CN(C)CCC=C1c2ccccc2COc2ccc(CC(=O)O)cc21

Compound | LC retention time
CC(Cc1ccc(O)cc1)NCC(O)c1cc(O)cc(O)c1 (centres undefined) | 4.33 min
CC1CCCCC1NC(=O)Nc1ccccc1 (centres undefined) | 9.15 min
CC12CCC3C(CC(O)C4=CC(=O)CCC43C)C1CCC2=O (centres undefined) | 6.99 min
Cc1nnc(-c2ccccc2)c(=O)n1N | 5.22 min
COC(=O)c1ccccc1S(=O)(=O)NC(=O)Nc1nc(C)cc(C)n1 | 5.03 min
CCCCc1c(C)nc(NCC)nc1OS(=O)(=O)N(C)C | 10.5 min
O=C(O)C(c1ccccc1)C1CCCCN1 (centres undefined) | 5.27 min
CNC(=O)Oc1cccc2c1OC(C)(C)C2O (centres undefined) | 5.09 min
CCOP(=O)(NC(C)C)Oc1ccc(S(C)(=O)=O)c(C)c1 (centres undefined) | 7.17 min
CCCCCCCCCc1ccc(O)cc1 | 12.9 min
O=C(Nc1ccccc1)Nc1cnns1 | 7.12 min
COP(=S)(OC)Oc1ccc(S(N)(=O)=O)cc1 | 6.16 min
CCCC(C)C1(CC)C(=O)NC(=S)NC1=O (centres undefined) | 8.63 min
CNC(=O)ON=C(C)C(C)S(C)(=O)=O (centres undefined) | 3.67 min
CCOC(=O)c1cn2nc(OP(=S)(OCC)OCC)cc2nc1C | 11.4 min
NCC(O)c1ccc(O)cc1 (centres undefined) | 1.96 min
CC(C)(C)CC(C)(C)c1ccc(O)cc1 | 12.3 min
CCCCCCC(C)(C)c1ccc(C2CCCC(O)C2)c(O)c1 (centres undefined) | 13.2 min
CC1=C(C(=O)Nc2ccccc2)S(=O)(=O)CCO1 | 5.57 min
COc1cccc(C(=O)NN(C(=O)c2cc(C)cc(C)c2)C(C)(C)C)c1C | 9.55 min
CNCC(O)c1ccc(O)cc1 (centres undefined) | 2.26 min
CC1CC(=O)CC2CCC3C4CCC(O)C4(C)CCC3C12C (centres undefined) | 14.4 min
CCC(C)c1cc([N+](=O)[O-])cc([N+](=O)[O-])c1O (centres undefined) | 7.92 min
COC(=O)c1sccc1S(=O)(=O)NC(=O)Nc1nc(C)nc(OC)n1 | 4.52 min
CC12CCC3C(CCC4CC(OC5OC(C(=O)O)C(O)C(O)C5O)CCC43C)C1CCC2=O (centres undefined) | 10.2 min
